Measured values published in patent US6867305B2, “Synthesis of epothilones, intermediates thereto and analogues thereof” (Sloan-Kettering Institute for Cancer Research, priority 1996, dated 2005).
“And” between values parts separate entries of the source, which are not always exact repeats. Identical values can stand only once. Like-named read-outs stand apart in the source and are kept apart here.

Columns and labels:
tubulin = assay: Tubulin-binding / tubulin polymerization assay; assay type: biochemical
[1] = Stability in plasma in vitro (HPLC); assay type: in vitro ADME, dog; details: 5 μg/mL, 37 degree
Description: Stability of dEpoF in animal plasmas. A HPLC method is set up using a NovaPak C 18, 3.9×300 mm column with a mobile phase of 50% acetonitrile in 50 mM potassium dihydrogen phosphate with 0.01% triethylamine at a flow rate of 0.8 ml/min. dEpoF is monitored at a wavelength of 260 nm and has a retention time of about 10 min. The plasma stability is performed with mouse plasma and dog plasma purchased from Pel-Freeze and human plasma from the blood center in MSKCC. A small amount of dEpoF was dissolved in 50% methanol/water at a concentration of 500 μg/mL. An aliquot of 20 μL is then spiked to 2 mL of plasma to a final plasma concentration of 5 μg/mL. The plasma samples were kept at 37 degree. At the time point, 200 μL of the plasma was removed and added to 400 μL of methanol to precipitate the plasma protein. Twenty μL of the supernatant was analyzed by HPLC without further modification. dEpoF disappears rapidly with half life about one hour in the commercial frozen mouse plasma alone, but stable in dog and human plasma.

[2] = system: Human lung carcinoma A549 cells; details: A549 cells exposed to IC50-IC90: VBL 14.3 months, paclitaxel and adriamycin 21.3 months, dEpoB 21.4 months
Description: Repeated exposure of human lung carcinoma A549 cells to sublethal concentrations of antitumor agents may lead to the development of drug resistance.
Every several weeks, cells were harvested for the dose-effect analysis to determine their folds of resistance (using SRB protein staining assay) based on comparing the IC50 value with the IC50 value of the untreated parent cells. Trypsinized/washed cells were used for propagating the cell lineage.

[3] = system: SK-OV-3 ovary adenocarcinoma xenograft; assay: Human tumor xenograft in nude mice; assay type: in vivo
Outline: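 Male athymic nu/nu mice bearing s.c. flank tumours from 5×10^6 cells or 30-50 mg tissue; dosing began at 35-200 mm^3 as 6 hr tail-vein i.v. infusion every other day ×5 unless otherwise indicated. Caliper tumour volume, body weight and lethality recorded every other day; 3-5 mice per group.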

B16 Melanoma = assay type: in vivo, murine; details: mouse, in vivo
[4] = Toxicity in beagle dogs, 10-min i.v. infusion; assay type: in vivo, beagle dog
Description: (§1) dEpoB at doses of 2, 6, 12 and 20 mg/kg, were given to male beagle dogs (11.2-14 kg) via i.v. infusion. The infusion volume was 1 ml/kg for 10 min using the Harvard PHD2000 pump (Harvard Apparatus). dEpoB was formulated in Cremophor 3%, ethanol 3%, propyleneglycol 40% and 5% glucose 54%. The animal was pretreated at −30 min with Benadryl 5 mg/kg, i.v.; cimetidine 5 mg/kg i.m.; and dexamethasone 1 mg/kg, i.e. to minimize allergic reactions due to Cremophor administration.
At 12 mg/kg. […] The body-weight slowly recovered in 2-3 weeks. […] There was a gross abnormality (reddish discoloration) of the intestinal mucosa from duodenum to the ileum. The small intestines contained blood tinged mucinous materials. […] Necrosis of intestinal mucosal epithelium with crypt cells most severely affected at this lethal dose.

[5] = Pharmacokinetics in beagle dogs; assay type: in vivo; details: male, dog, plasma, intravenous, 6 mg/kg, 10-min i.v. infusion
Description: as §1
Pharmacokinetic studies were also carried out for of dEpoB in beagle dogs at 6 mg/kg (120 mg/m^2 body surface), with 10-min i.v. infusion. Serial blood samples were collected in 5 ml heparinized tubes intermittently from-15 min to 24 hours. Plasma concentrations of dEpoB were determined by HPLC as described in methods.
Human blood plasma or nude mice plasma (300 μl) containing dEpoB (0.05-20 μg/ml) was added 30 μl of methanol and mixed for 2 min and then added 300 μl of methanol. The centrifuge supernatant was used for high performance liquid chromatography (HPLC). Nova-pak C18 column (15 cm) was used, with 50% acetonitrile/water with 0.8% triethylamine and 0.2% phosphoric acid as mobile phase. UV absorbance at 250 nm was measured.

[6] = SK-OV-3, dEpoB 30 mg/kg, Taxol 15 mg/kg, Q2Dx6, 6-hr i.v. infusion

SMILES: C/C1=C/C[C@@H](/C(C)=C/c2csc(CO)n2)OC(=O)C[C@H](O)C(C)(C)C(=O)[C@H](C)[C@@H](O)[C@@H](C)CCC1 [dEpoF, 12,13-Desoxyepothilone F]
- tubulin-binding activity retained relative to dEpoB (tubulin): 90%
- stability in dog plasma [1]: stable

SMILES: C/C1=C/C[C@@H](/C(C)=C/c2csc(C)n2)OC(=O)C[C@H](O)C(C)(C)C(=O)[C@H](C)[C@@H](O)[C@@H](C)CCC1 [dEpoB, 12,13-desoxyepothilone B]
- fold resistance developed to the drug after repeated exposure [2]: 21 fold
- Therapeutic Effect Rank Order ([3]; SK-OV-3, i.v. infusion): Taxol>>dEpoB
- Therapeutic Effect Rank Order ([3]; SK-OV-3, i.v. or i.p., ref 19 (Table 6)): dEpoB≈Taxol
- Therapeutic Effects dEpoB vs Taxol ([3]; SK-OV-3, dEpoB 30 mg/kg, Taxol 15 mg/kg, Q2Dx6): <<
- Lowest Average Tumor Size (T/C) [3, 6]: 0.17
- Tumor Disappearance [3, 6]: 0/3
- Therapeutic Effect Rank Order (B16 Melanoma): dEpoB>Taxol>>EpoB
- clinical signs ([4]; 12 mg/kg): moderate diarrhea (without blood)
- decrease in white blood cell (WBC) counts ([4]; 12 mg/kg): 13%
- drop in body-weight on day 3 ([4]; 12 mg/kg): 1.3 kg
- histopathology of 28 organs or tissues ([4]; 12 mg/kg): No significant histopathologic lesions
- platelet counts, ALT, AST ([4]; 12 mg/kg): No significant changes
- WBC on day 3 ([4]; 20 mg/kg): 0.6 k/μl
- body-weight loss on day 2 ([4]; 20 mg/kg): 0.9 kg
- body-weight loss on day 3 ([4]; 20 mg/kg): 3.6 kg
- increase in ALT and AST by day 4 ([4]; 20 mg/kg): 3-6 fold
- lethality ([4]; 20 mg/kg): expired on day 4
- clinical signs on day 2 ([4]; 20 mg/kg i.v.): severe bloody diarrhea and dehydration
- toxicity ([4]; 2 or 6 mg/kg (40 and 120 mg/m^2)): No significant toxicity
- concentration at 24 hr ([5]; read-out: plasma concentration at the end of 24-hr collection): 45 ng/mL and 92 nM
- half-life ([5]; read-out: α-phase t1/2 (converted)): 1.9 h
- half-life ([5]; read-out: β-phase t1/2 (converted)): 21 h
